Measured values as given in PubChem BioAssay (NCI).
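Method: 48-hour compound exposure of cells in 96-well plates, five concentrations, linear interpolation of endpoints. TGI marks complete inhibition of growth.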

Columns and labels:
Assay in all cases: inhibition of tumour cell growth, NCI panel, 48 h
[1] = test system: ACHN renal
[2] = test system: COLO 205 colon
[3] = test system: HCT-116 colon
[4] = test system: NCI-H23 lung
[5] = test system: NCI-H460 lung
[6] = test system: OVCAR-4 ovarian
[7] = test system: OVCAR-5 ovarian
[8] = test system: RXF 393 renal
[9] = test system: SR leukemia
[10] = test system: TK-10 renal

Compound	TGI [1] [µM]	TGI [2] [µM]	TGI [3] [µM]	TGI [4] [µM]	TGI [5] [µM]	TGI [6] [µM]	TGI [7] [µM]	TGI [8] [µM]	TGI [9] [µM]	TGI [10] [µM]
COc1ccc(C(=O)c2ccc(-n3cc(/C=C/[N+](=O)[O-])c4ccccc43)cc2)cc1	52	> 63.5	28.2	52.4	> 66.1	> 100	> 100	10.8	> 100	16.8
O=C1OI(C#Cc2ccccc2)c2ccccc21	5.42	9.11	5.8	10.8	13.4	12.3	> 40.1	97.5	5.53	13.5
O=C1/C(=C\c2cccc(Oc3ccccc3)c2)SC(c2ccccc2)N1c1cccc([N+](=O)[O-])c1 (stereo not given)	> 100	> 100	> 100	> 100	> 100	> 100	> 100	> 100	> 100	> 100
CCOC(=O)c1nc2ccccc2nc1NCc1ccc(Cl)cc1Cl	> 100	> 100	> 100	> 100	> 100	> 100	> 100	> 100	> 100	> 100
O=C(/C=C/c1ccco1)c1cccc(C(=O)/C=C/c2ccco2)n1	72.7	> 67.4	18.5	31.8	> 100	> 100	> 81.9	> 65.1	6.82	> 100
O=C1CSC2(CC(/C=C/c3ccccc3Br)=NN2c2cccc(S(=O)(=O)O)c2)N1c1nc2ccccc2s1 (stereo not given)	> 100	> 100	> 100	> 100	> 100	> 100	> 100	> 100	> 100	> 100
